Patent publication US6369075B1, “7[4′-trifluoromethyl-biphenyl-2-carbonyl)amino]-quinoline-3-carboxylic acid amides, and method of inhibiting the secretion of apolipoprotein B” (Pfizer, Inc., priority 1999, dated 2002)

- melting point: 158 °C
SMILES: CCS(=O)(=O)O.CCS(=O)(=O)O.O=C(N[C@@H](c1ccccc1)c1ccccn1)c1cnc2cc(NC(=O)c3ccccc3-c3ccc(C(F)(F)F)cc3)ccc2c1 [Example 2D, (S)-7-[(4′-Trifluoromethyl-biphenyl-2-carbonyl)-amino]-quinoline-3-carboxylic acid (phenyl-pyridin-2-yl-methyl)-amide, bis-ethanesulfonate]
